The text below walks through data of article PMC9460261, “Need for a Standardized Translational Drug Development Platform: Lessons Learned from the Repurposing of Drugs for COVID-19” (Microorganisms, 2022).

Test [1] concerns SARS-CoV-2 in Mucilair human airway epithelia. It counts as cell-based, SARS-CoV-2 BavPat1/2020.
In test [2] the test system is SARS-CoV-2 in human airway epithelial cells at air-liquid interface. The class given is cell-based, SARS-CoV-2_B.1.1.7.
Test [3] has the same test system. On the set-up: method as in earlier work. As to conditions: 4 dpi, cited from earlier work.

Structures can show the parent of a compound that is named as a salt. Where two headings read alike, the source gives them in different places.

On to `CNCCC(Oc1ccc(C(F)(F)F)cc1)c1ccccc1` (stereo not shown) [Fluoxetine, fluoxetine], for which the “Log Viral titer Reduction (Compared to Virus Control), HAEC/ALI (BavPat variant)” value in test [1] is recorded as 0.68 (+-0.11). Moreover, the “Log Viral Load Reduction (Compared to Virus Control and Background), HAEC/ALI (alpha variant)” value in test [2] is -0.12 (+-0.10).
On to `OC(c1cc(C(F)(F)F)nc2c(C(F)(F)F)cccc12)C1CCCCN1` (stereo not shown) [Mefloquine, mefloquine], for which the “Log Viral Load Reduction (Compared to Virus Control and Background), HAEC/ALI (alpha variant)” value in test [2] (10 uM, […]) was 0.45 (+-2.02) log.
As for `O=c1nc(NO)ccn1[C@@H]1O[C@H](CO)[C@@H](O)[C@H]1O` [EIDD-1931], the “Log Viral Load Reduction (Compared to Virus Control and Background), HAEC/ALI (alpha variant)” value in test [2] was “+Inc”; in test [2] (10 uM, […]), “+Inc”.
For the molecule `COc1ccc2cc1Oc1ccc(cc1)C[C@H]1c3c(cc4c(c3Oc3cc5c(cc3OC)CCN(C)[C@@H]5C2)OCO4)CCN1C` [Cepharanthine, cepharanthine], the “Log Viral Load Reduction (Compared to Virus Control and Background), HAEC/ALI (alpha variant)” value in test [2] is 0.92 (+-0.97) log.
In the case of `CC(=O)Oc1ccccc1C(=O)Nc1ncc([N+](=O)[O-])s1` [Nitazoxanide, nitazoxanide], in test [1], the “Activity, HAEC/ALI (BavPat variant)” value is reported as “Yes” and the “Log Viral titer Reduction (Compared to Virus Control), HAEC/ALI (BavPat variant)” value is -1.59 (+-0.72) log.
Turning to `NC(=O)c1nc(F)c[nH]c1=O` [Favipiravir, favipiravir], the “Log Viral Load Reduction (Compared to Virus Control and Background), HAEC/ALI (alpha variant)” value in test [2] (300 uM, […]) is listed as -0.4 (+/-0.2) log.
With `COC(=O)N[C@H](C(=O)N1CCC[C@H]1c1nc(-c2ccc(-c3ccc(-c4c[nH]c([C@@H]5CCCN5C(=O)[C@@H](NC(=O)OC)C(C)C)n4)cc3)cc2)c[nH]1)C(C)C` [Daclatasvir, daclatasvir], the “Log Viral Load Reduction (Compared to Virus Control and Background), HAEC/ALI (alpha variant)” value in test [2] (10 uM, […]) is recorded as 0.17 (+-0.84) log.
For `Cc1c(O)cccc1C(=O)N[C@@H](CSc1ccccc1)[C@H](O)CN1C[C@H]2CCCC[C@H]2C[C@H]1C(=O)NC(C)(C)C` [Nelfinavir, nelfinavir], in test [2] (10 uM, […]), the “Activity, HAEC/ALI (alpha variant)” value is “YES”; the “Log Viral Load Reduction (Compared to Virus Control and Background), HAEC/ALI (alpha variant)” value is listed as 3.2 (+-1.4) log.
Turning to `CC(C)OC(=O)[C@H](C)N[P@](=O)(OC[C@H]1O[C@@H](n2ccc(=O)[nH]c2=O)[C@](C)(F)[C@@H]1O)Oc1ccccc1` [Sofosbuvir, sofosbuvir], the “Log Viral Load Reduction (Compared to Virus Control and Background), HAEC/ALI (alpha variant)” value in test [2] (10 uM, […]) is on record as -0.56 (+-0.10) log.
Turning to `COC(=O)N[C@H](C(=O)N[C@@H](Cc1ccccc1)[C@@H](O)CN(Cc1ccc(-c2ccccn2)cc1)NC(=O)[C@@H](NC(=O)OC)C(C)(C)C)C(C)(C)C` [Atazanavir, atazanavir], in test [1] (10 uM, […]), the “Log Viral titer Reduction (Compared to Virus Control), HAEC/ALI (BavPat variant)” value is given as 0.09 (+-0.64) log.
The same measure, in the same setting: the result for `CCN(CC)Cc1cc(Nc2ccnc3cc(Cl)ccc23)ccc1O` [Amodiaquine, amodiaquine] reads -0.51 (+-1.60) log.
Turning to `CC1(C)C(=O)N(c2ccc(C#N)c(C(F)(F)F)c2F)C(=S)N1c1ccc(CCCc2ncco2)nc1` [Proxalutamide, proxalutamide], the “Log Viral titer Reduction (Compared to Virus Control), HAEC/ALI (BavPat variant)” value in test [1] (10 uM, […]) is listed as 0.11 (+-0.6) log.
For `CCCN(CCC)S(=O)(=O)c1ccc(C(=O)O)cc1` [Probenecid, probenecid], in test [2] (10 uM, […]), the “Log Viral Load Reduction (Compared to Virus Control and Background), HAEC/ALI (alpha variant)” value is listed as 0.34 (+-1.0) log.
For the molecule `CC(=O)CCCCn1c(=O)c2c(ncn2C)n(C)c1=O` [Pentoxyfilline, pentoxyfilline], the “Log Viral titer Reduction (Compared to Virus Control), HAEC/ALI (BavPat variant)” value in test [1] (10 uM, […]) is 0.17(+-0.32) log.
`CN(C)C(=O)COC(=O)Cc1ccc(OC(=O)c2ccc(NC(=N)N)cc2)cc1` [Camostat mesylate, camostat mesylate]: in test [2], the “Activity, HAEC/ALI (alpha variant)” value is given as “YES”; the “Log Viral Load Reduction (Compared to Virus Control and Background), HAEC/ALI (alpha variant)” value is > 1.7 log.
For `COCCCC/C(=N\OCCN)c1ccc(C(F)(F)F)cc1` [Fluvoxamine maleate, fluvoxamine maleate], the “Log Viral titer Reduction (Compared to Virus Control), HAEC/ALI (BavPat variant)” value in test [1] (10 uM, […]) is listed as 0.2(+-0.1) log. Moreover, in test [2] (10 uM, […]), the “Log Viral Load Reduction (Compared to Virus Control and Background), HAEC/ALI (alpha variant)” value is on record as “+Inc”.
As for `Nc1c(Br)cc(Br)cc1CN[C@H]1CC[C@H](O)CC1` [Ambroxol, ambroxol], in test [2], the “Log Viral Load Reduction (Compared to Virus Control and Background), HAEC/ALI (alpha variant)” value is given as “–1.0 (+-0.71) log”.
ivermectin: in test [2] (10 uM, […]), the “Activity, HAEC/ALI (alpha variant)” value is given as “Toxic”; the “Log Viral Load Reduction (Compared to Virus Control and Background), HAEC/ALI (alpha variant)” value is reported as > 4.09 log.
As for `CC(C)(C)[C@H](NC(=O)C(F)(F)F)C(=O)N1C[C@H]2[C@@H]([C@H]1C(=O)N[C@H](C#N)C[C@@H]1CCNC1=O)C2(C)C` [Nirmatrelvir, nirmatrelvir], the “Log Viral Load Reduction (Compared to Virus Control and Background), HAEC/ALI (alpha variant)” value in test [3] (0.03 uM) is -0.30 (+-0.41) log; in test [3] (0.1 uM), 1.9 (+-1.6) log; in test [3] (1 uM) it was > 3.8 log. Further, the “Activity, HAEC/ALI (alpha variant)” value in test [3] (0.1 uM, § variability observed) is reported as “YES”; in test [3] (1 uM), “YES”.
For the molecule `CC(C)C(=O)OC[C@H]1O[C@@H](n2ccc(NO)nc2=O)[C@H](O)[C@@H]1O` [Molnupiravir, molnupiravir], the “Activity, HAEC/ALI (BavPat variant)” value in test [1] was “YES”. Further, the “Log Viral titer Reduction (Compared to Virus Control), HAEC/ALI (BavPat variant)” value in test [1] (0.3 uM, […]) is reported as -0.39 (+-0.48) log. Further, the “Log Viral Load Reduction (Compared to Virus Control and Background), HAEC/ALI (alpha variant)” value was 1.9 (+-1.3) log in test [2] and 5.4 (+-1.5) log in test [2] (10 uM, […]). Further, the “Activity, HAEC/ALI (alpha variant)” value is on record as “YES” in test [2] (3 uM, […], § variability observed) and “YES” in test [2] (10 uM, […]).
As for `COc1cc2c(c(OC)c1OC)-c1ccc(OC)c(=O)cc1[C@@H](NC(C)=O)CC2` [Colchicine, colchicine], the “Log Viral Load Reduction (Compared to Virus Control and Background), HAEC/ALI (alpha variant)” value in test [2] was -0.2 (+-0.44) log.
Regarding bemnifosbuvir, the “Log Viral titer Reduction (Compared to Virus Control), HAEC/ALI (BavPat variant)” value in test [1] (0.1 uM, […]) is given as -0.12 (+-0.4) log; in test [1] (0.3 uM, […]), -0.38 (+-0.18) log. For the same molecule, in test [2], the “Log Viral Load Reduction (Compared to Virus Control and Background), HAEC/ALI (alpha variant)” value is given as -0.35 (+-1.2) log.
